This is an account of results in patent US6310217A, “Acylpyrroledicarboxylic acids and acylindoledicarboxylic acids and their derivatives as inhibitors of cytosolic phospholipase A2” (Merckle GmbH, priority 1996, dated 2001).

The target in one experiment is T1, cytosolic PLA2 (Bos taurus, UniProt A4IFJ5).
T1 construct: endogenous in cells; host or cells: intact bovine platelets
T1 sequence (A4IFJ5 1-749): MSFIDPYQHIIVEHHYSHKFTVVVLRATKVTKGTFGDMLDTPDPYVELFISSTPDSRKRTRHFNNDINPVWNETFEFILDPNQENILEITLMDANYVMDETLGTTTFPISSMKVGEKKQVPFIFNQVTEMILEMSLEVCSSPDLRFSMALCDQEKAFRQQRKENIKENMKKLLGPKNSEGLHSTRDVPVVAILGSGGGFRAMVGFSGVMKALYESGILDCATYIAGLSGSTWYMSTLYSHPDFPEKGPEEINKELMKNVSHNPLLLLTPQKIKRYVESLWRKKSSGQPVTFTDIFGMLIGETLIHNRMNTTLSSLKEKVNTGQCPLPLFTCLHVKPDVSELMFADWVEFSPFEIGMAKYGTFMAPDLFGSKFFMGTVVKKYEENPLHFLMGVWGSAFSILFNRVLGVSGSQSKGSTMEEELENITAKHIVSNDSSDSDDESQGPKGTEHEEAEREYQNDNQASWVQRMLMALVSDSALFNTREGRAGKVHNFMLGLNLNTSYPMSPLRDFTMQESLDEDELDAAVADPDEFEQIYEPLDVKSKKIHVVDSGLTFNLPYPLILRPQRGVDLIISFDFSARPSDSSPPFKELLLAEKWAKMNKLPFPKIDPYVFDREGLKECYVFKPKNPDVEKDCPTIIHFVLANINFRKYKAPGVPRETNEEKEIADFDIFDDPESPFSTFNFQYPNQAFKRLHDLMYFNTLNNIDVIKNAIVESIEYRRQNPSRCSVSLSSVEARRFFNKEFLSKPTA
Nature of the experiment: Inhibition of cytosolic phospholipase A2 in intact bovine platelets stimulated with calcium ionophore A23187; released arachidonic acid determined by reversed phase HPLC with UV detection. The format is cell-based. Conditions: A23187 stimulation, 5,8,11,14-eicosatetraynoic acid added, test substances normally dissolved in DMSO. The text has this:
The efficacy of the compounds according to the invention can be determined on the basis of the inhibition of phospholipase A2. For this purpose, the phospholipaase A2 in intact bovine platelets is stimulated with calcium ionophore A23187, and thus the release of arachidonic acid from the membrane phospholipids is induced. In order to prevent metabolism of the enzyme product arachidonic acid by the cyclooxygenase pathway and the 12-lipoxygenase pathway, in this case the dual cyclooxygenase/12-lipoxygenase inhibitor 5,8,11,14-eicosatetraynoic acid is added. After purification by solid phase extraction, the released arachidonic acid is determined by reversed phase HPLC with UV detection. The inhibition of the enzyme by a test substance is evident from the ratio between the amounts of arachidonic acid formed in the presence and in the absence of the test substance. Further details of the test system are to be found in Example 15.
The efficacy of the compounds according to the invention can be determined from the inhibition of phospholipase A2. The assay method used has already been described (see Lehr M., In-vitro assay for the evaluation of phospholipase A2 inhibitors using bovine platelets and HPLC with UV-detection. Pharm.Pharmacol. Lett. 1992, 2, 176-179). The test substances were normally dissolved in DMSO.

A further experiment concerns mice. The settings on record: cited from earlier work.

Structures are written as SMILES.

As a reminder, the IC50 is the concentration needed to halve the response being measured. Take `CCCCCCCCCCCC(=O)c1c(C)c(CC(=O)O)n(Cc2cccc(CCC(=O)O)c2)c1C` [Example 3, 3-(3-{[2-(Carboxymethyl)-4-dodecanoyl-3,5-dimethyl-pyrrol-1-yl]methyl}phenyl)propionic acid]: the IC50 on cytosolic PLA2 is 3 µM.
Regarding `CCCCCCCCCCCC(=O)c1c(C)c(CC(=O)O)n(Cc2cccc(/C=C/C(=O)O)c2)c1C` [Example 2, (E)-3-{[2-(Carboxymethyl)-4-dodecanoyl-3,5-dimethyl-pyrrol-1-yl]methyl}cinnamic acid], the IC50 at cytosolic PLA2 amounted to 4.6 µM.
The same measure, in the same setting: under `CCCCCCCCCCCC(=O)c1c(C(=O)O)n(CCOc2ccc(CC(=O)O)cc2)c2ccccc12` [Example 14, 1-{2-[4-(Carboxymethyl)phenoxy]ethyl}-3-dodecanoyl-indole-2-carboxylic acid] stands 1.6 µM.
Regarding `Cn1c(C(=O)O)ccc1C(=O)C=Cc1ccccc1` [1-methyl-5-(3-phenylacryloyl)pyrrol-2-ylformic acid], the analgesic effect entry with mice was “analgesic effect”.
`CCCCCCCCCCCC(=O)c1c(C(=O)O)n(CCOc2cccc(CC(=O)O)c2)c2ccccc12` [Example 13, 1-{2-[3-(carboxymethyl)phenoxy]ethyl}-3-dodecanoyl-indole-2-carboxylic acid]: at cytosolic PLA2, the IC50 turned out to be 1.6 µM.
